In the test the target is T1, Autotaxin (Homo sapiens, UniProt Q13822).
T1 construct: from tissue; host or cells: pooled human plasma
The test is described as follows: LPA formation in pooled human plasma (ex vivo autotaxin inhibition). The test is classed as biochemical. To be noted: 2 hours incubation. On the procedure:
Autotaxin is a plasma phosphodiesterase that converts lysophosphatidylcholine (LPC) into lysophosphatidic acid (LPA), therefore LPA formation was used to evaluate the potency of autotaxin inhibitors. The potency of compound was evaluated ex vivo in pooled human plasma.
Various concentrations of compound were incubated with plasma for 2 hours, and the LPA 18:2 and 20:4 concentration was measured by LC/MS/MS. To determine the LPA18:2 or 20:4 concentration in study plasma, a 10× calibration standard of LPA 18:2 or 20:4 were prepared by serial dilution in butyl alcohol: 20000, 10000, 5000, 2000, 1000, 500, 200, 100, 50, 20, and 10 ng/mL. 3 μL of calibration standard solution was added into 27.0 μL of blank plasma in 1.5-mL microcentrifuge tubes to generate 1× calibration standards. The 30.0 μL of standards or study plasma was added into 1.5-mL microcentrifuge tubes. 200 μL of butyl alcohol (containing 25.0 ng/mL LPA17:0 for internal control) was added into each 1.5-mL microcentrifuge tube containing study plasma or calibration standards. After vortexing for 1 minute and centrifuging at 10000 rpm for 10 min, 180 μL of supernatant was transferred into a 96-well plate and the LPA18:2 concentration in the plasma was quantitated using LC/MS/MS together with standards. Briefly, 8 μL of the solutions were injected for LC-MS/MS analysis using an ACQUITY UPLC BEH C18 column (2.1×50 mm, 1.7 μm) with mobile phase A [20 mM NH4OAC in water (0.1% FA)] and phase B [5 mM NH4OAC in water/0.2% FA in ACN=5:95]. Mass spectrometer parameters optimization for LPA18:2 were performed by Deprotonated molecular ion at m/z 433.2 ([M−H]^−) for LPA18:2, 457.2 for LPA20:4 and abundant product ion at m/z 152.8 for both LPA18:2 and LPA20:4 were obtained. Quantitative data were acquired in multiple reaction monitoring (MRM) negative electrospray ionization mode
The inhibition rate of LPA formation was determined by comparing the levels of LPA in treated and non-treated plasma. The data was plotted against the corresponding concentration of compound and the IC50 was calculated through non-linear regression fitting.

The mark [1] stands for this setting: LPA 18:2 by LC/MS/MS, read-out: LPA formation (18:2) (IC50).
The mark [2] stands for this setting: LPA 20:4 by LC/MS/MS, read-out: LPA formation (20:4) (IC50).

Consider 18 compounds from patent US10711000B2 (Fronthera U.S. Pharmaceuticals LLC, priority 2018, dated 2020).

Where two headings read alike, the source gives them in different places.

Broadly, the IC50 is the concentration needed to halve the response being measured. Take `CCc1nn2c(C)cc(N3CC4(CN(C(=O)c5ccon5)C4)C3)cc2c1N(C)c1nc(-c2ccc(F)cc2)c(C#N)s1` [Example 70, 2-((2-ethyl-5-(6-(isoxazole-3-carbonyl)-2,6-diazaspiro[3.3]heptan-2-yl)-7-methylpyrazolo[1,5-a]pyridin-3-yl)(methyl)amino)-4-(4-fluorophenyl)thiazole-5-carbonitrile]: the concentration for half-maximal inhibition (IC50) was in the range of 100 to 500 nM under setting [1] and 100 to 500 nM under setting [2].
With `CCc1nn2c(C)cc(N3CCC4(CN(C(=O)C5CCOCC5)C4)C3)cc2c1N(C)c1nc(-c2ccc(F)cc2)c(C#N)s1` [Example 43, 2-((2-ethyl-7-methyl-5-(2-(tetrahydro-2H-pyran-4-carbonyl)-2,6-diazaspiro[3.4]octan-6-yl)pyrazolo[1,5-a]pyridin-3-yl)(methyl)amino)-4-(4-fluorophenyl)thiazole-5-carbonitrile], the concentration for half-maximal inhibition (IC50) is at most 100 nM under setting [1] and at most 100 nM under setting [2].
Take `CCc1nn2c(C)cc(N3CC4(CN(C(=O)N5CCN(C)CC5)C4)C3)cc2c1N(C)c1nc(-c2ccc(F)cc2)c(C#N)s1` [Example 32, 2-((2-ethyl-7-methyl-5-(6-(4-methylpiperazine-1-carbonyl)-2,6-diazaspiro[3.3]heptan-2-yl)pyrazolo[1,5-a]pyridin-3-yl)(methyl)amino)-4-(4-fluorophenyl)thiazole-5-carbonitrile]: the half-inhibitory concentration (IC50) runs as follows: under setting [1], at most 100 nM; under setting [2], at most 100 nM.
Turning to `CCn1nc2ncc(N3CCN(CC(=O)N4CC(O)C4)CC3)cc2c1N(C)c1nc(-c2ccc(F)cc2)c(C#N)s1` [Compound 115, 2-((2-ethyl-5-(4-(2-(3-hydroxyazetidin-1-yl)-2-oxoethyl)piperazin-1-yl)-2H-pyrazolo[3,4-b]pyridin-3-yl)(methyl)amino)-4-(4-fluorophenyl)thiazole-5-carbonitrile], the concentration for half-maximal inhibition (IC50) is at most 100 nM under setting [1] and at most 100 nM under setting [2].
As for `CCc1nn2ccc(N3CCN(CC(=O)N4CC[C@@H](O)C4)CC3)cc2c1N(C)c1nc(-c2ccc(F)cc2)c(C#N)s1` [Example 3, (R)-2-((2-ethyl-5-(4-(2-(3-hydroxypyrrolidin-1-yl)-2-oxoethyl)piperazin-1-yl)pyrazolo[1,5-a]pyridin-3-yl)(methyl)amino)-4-(4-fluorophenyl)thiazole-5-carbonitrile], the concentration for half-maximal inhibition (IC50) under setting [1] was at most 100 nM and the half-inhibitory concentration (IC50) under setting [2] is at most 100 nM.
With `CCc1nn2ccc(N3CCN(CC(=O)N4CC(CO)C4)CC3)cc2c1N(C)c1nc(-c2ccc(F)cc2)c(C#N)s1` [Example 4, 2-((2-ethyl-5-(4-(2-(3-(hydroxymethyl)azetidin-1-yl)-2-oxoethyl)piperazin-1-yl)pyrazolo[1,5-a]pyridin-3-yl)(methyl)amino)-4-(4-fluorophenyl)thiazole-5-carbonitrile], the IC50 was at most 100 nM under setting [1] and at most 100 nM under setting [2].
Consider `CCc1nn2c(C)cc(N3CC4(CCN(C(=O)[C@H]5CCCO5)C4)C3)cc2c1N(C)c1nc(-c2ccc(F)cc2)c(C#N)s1` [Example 46, (R)-2-((2-ethyl-7-methyl-5-(6-(tetrahydrofuran-2-carbonyl)-2,6-diazaspiro[3.4]octan-2-yl)pyrazolo[1,5-a]pyridin-3-yl)(methyl)amino)-4-(4-fluorophenyl)thiazole-5-carbonitrile], for which the half-maximal inhibitory concentration (IC50) fell in the range of 100 to 500 nM under setting [1] and 100 to 500 nM under setting [2].
On to `CCc1nn2c(C)cc(N3CCN(CC(=O)N(C)C)CC3)cc2c1N(C)c1nc(-c2ccc(F)cc2)c(C#N)s1` [Example 24, 2-(4-(3-((5-cyano-4-(4-fluorophenyl)thiazol-2-yl)(methyl)amino)-2-ethyl-7-methylpyrazolo[1,5-a]pyridin-5-yl)piperazin-1-yl)-N,N-dimethylacetamide], for which the IC50 by setting is: under setting [1], 100 to 500 nM; under setting [2], at most 100 nM.
As for `CCc1nn2c(C)cc(N3CCN(CC(=O)N4CC[C@H](O)C4)CC3)cc2c1N(C)c1nc(-c2ccc(F)cc2)c(C#N)s1` [Example 26, (S)-2-((2-ethyl-5-(4-(2-(3-hydroxypyrrolidin-1-yl)-2-oxoethyl)piperazin-1-yl)-7-methylpyrazolo[1,5-a]pyridin-3-yl)(methyl)amino)-4-(4-fluorophenyl)thiazole-5-carbonitrile], the half-maximal inhibitory concentration (IC50) fell in the range of 100 to 500 nM under setting [1] and 100 to 500 nM under setting [2].
`CCc1nn2ccc(N3CC4(CN(C(=O)[C@@H]5CCOC5)C4)C3)cc2c1N(C)c1nc(-c2ccc(F)cc2)c(C#N)s1` [Example 9, (R)-2-((2-ethyl-5-(6-(tetrahydrofuran-3-carbonyl)-2,6-diazaspiro[3.3]heptan-2-yl)pyrazolo[1,5-a]pyridin-3-yl)(methyl)amino)-4-(4-fluorophenyl)thiazole-5-carbonitrile]: the half-inhibitory concentration (IC50) under setting [1] is 100 to 500 nM and the half-maximal inhibitory concentration (IC50) under setting [2] was 100 to 500 nM.
Regarding `Cc1cc(N2CC(O)C2)cc2c(N(C)c3nc(-c4ccc(F)cc4)c(C#N)s3)c(C3CC3)nn12` [Example 87, 2-[[2-cyclopropyl-5-(3-hydroxyazetidin-1-yl)-7-methyl-pyrazolo[1,5-a]pyridin-3-yl]-methyl-amino]-4-(4-fluorophenyl)thiazole-5-carbonitrile], the IC50 is above 1000 nM under setting [1] and above 1000 nM under setting [2].
For the compound `CCc1nn2ccc(N3CC4(CCN(C(=O)N5CC(O)C5)C4)C3)cc2c1N(C)c1nc(-c2ccc(F)cc2)c(C#N)s1` [Example 15, 2-((2-ethyl-5-(6-(3-hydroxyazetidine-1-carbonyl)-2,6-diazaspiro[3.4]octan-2-yl)pyrazolo[1,5-a]pyridin-3-yl)(methyl)amino)-4-(4-fluorophenyl)thiazole-5-carbonitrile], the IC50 runs as follows: under setting [1], at most 100 nM; under setting [2], at most 100 nM.
As for `Cc1cc(N2CC3(CN(C(=O)C4(O)CCOCC4)C3)C2)cc2c(N(C)c3nc(-c4ccc(F)cc4)c(C#N)s3)c(C3CC3)nn12` [Example 90, 2-((2-cyclopropyl-5-(6-(4-hydroxytetrahydro-2H-pyran-4-carbonyl)-2,6-diazaspiro[3.3]heptan-2-yl)-7-methylpyrazolo[1,5-a]pyridin-3-yl)(methyl)amino)-4-(4-fluorophenyl)thiazole-5-carbonitrile], the IC50 is at most 100 nM under setting [1] and at most 100 nM under setting [2].
Turning to `CCn1nc2c(C)cc(N3CCN(CC(=O)N4CC(O)C4)CC3)cc2c1N(C)c1nc(-c2ccc(F)cc2)c(C#N)s1` [Compound 125, 2-((2-ethyl-5-(4-(2-(3-hydroxyazetidin-1-yl)-2-oxoethyl)piperazin-1-yl)-7-methyl-2H-indazol-3-yl)(methyl)amino)-4-(4-fluorophenyl)thiazole-5-carbonitrile], the IC50 reads like this: under setting [1], 500 to 1000 nM; under setting [2], 500 to 1000 nM.
Turning to `Cc1cc(N2CC3(CN(C(=O)C4CN(C)C4)C3)C2)cc2c(N(C)c3nc(-c4ccc(F)cc4)c(C#N)s3)c(C3CC3)nn12` [Example 84, 2-((2-cyclopropyl-7-methyl-5-(6-(1-methylazetidine-3-carbonyl)-2,6-diazaspiro[3.3]heptan-2-yl)pyrazolo[1,5-a]pyridin-3-yl)(methyl)amino)-4-(4-fluorophenyl)thiazole-5-carbonitrile], the half-maximal inhibitory concentration (IC50) is, setting by setting: under setting [1], at most 100 nM; under setting [2], at most 100 nM.
On to `CCc1nn2c(C)cc(N3CCN(CC(=O)N4CC(O)C4)CC3)cc2c1N(C)c1nc(-c2ccc(F)cc2)c(C#N)s1` [Example 23, 2-((2-ethyl-5-(4-(2-(3-hydroxyazetidin-1-yl)-2-oxoethyl)piperazin-1-yl)-7-methylpyrazolo[1,5-a]pyridin-3-yl)(methyl)amino)-4-(4-fluorophenyl)thiazole-5-carbonitrile], for which the 50% inhibitory concentration (IC50) lay in the range of 100 to 500 nM under setting [1] and 100 to 500 nM under setting [2].
For `Cc1cc(N2CC3(CN(C(=O)C4CCN(C)C4)C3)C2)cc2c(N(C)c3nc(-c4ccc(F)cc4)c(C#N)s3)c(C3CC3)nn12` (stereo not drawn) [Example 85, 2-((2-cyclopropyl-7-methyl-5-(6-(1-methylpyrrolidine-3-carbonyl)-2,6-diazaspiro[3.3]heptan-2-yl)pyrazolo[1,5-a]pyridin-3-yl)(methyl)amino)-4-(4-fluorophenyl)thiazole-5-carbonitrile], the half-maximal inhibitory concentration (IC50) fell in the range of 100 to 500 nM under setting [1] and 100 to 500 nM under setting [2].
`CCc1nn2ccc(N3CC4(CC4C(=O)N4CC(O)C4)C3)cc2c1N(C)c1nc(-c2ccc(F)cc2)c(C#N)s1` (stereo not drawn) [Example 7, 2-((2-ethyl-5-(1-(3-hydroxyazetidine-1-carbonyl)-5-azaspiro[2.3]hexan-5-yl)pyrazolo[1,5-a]pyridin-3-yl)(methyl)amino)-4-(4-fluorophenyl)thiazole-5-carbonitrile]: the IC50 runs as follows: under setting [1], 100 to 500 nM; under setting [2], 100 to 500 nM.
